Test results taken from patent publication US4211772A, “Benzopyran glycoside acetals and ketals” (Laboratoires Sarget, priority 1977, dated 1980).
Converted amounts (≈) assume the structure as drawn. Where two headings read alike, the source gives them in different places.

Key:
[1] = i.p. toxicity in Swiss EOPS mice, mortality at 14 days; settings: mouse, in vivo, ip, DMSO solution at 1/2, read-out: percentages of mortality at the end of 14 days
Experimental: The i.p. toxicities of certain compounds of the present invention were determined using male and female Swiss EOPS mice for administrations in DMSO solution at 1/2 under a volume of P/100.

carragenin edema = assay: Anti-inflammatory activity: carragenin edema test; type: in vivo; settings: Rattus norvegicus, ip, substantially alkaline pH solution, read-out: % inhibition of carragenin edema; for inhibition in vivo at 100 mg/kg: 100 mg/kg i.p.; for inhibition in vivo at 200 mg/kg: 200 mg/kg i.p.; for inhibition in vivo at 300 mg/kg: 300 mg/kg i.p.; for inhibition in vivo at 150 mg/kg: 150 mg/kg i.p.
Experimental: Anti-inflammatory activity
This was determined by the carragenin edema test using male Wistar EOPS rats. Inflammation was induced by the injection of 0.1 ml of a suspension of 5% carragenin in physiological serum into the muscular bundle of the metatarsal region of the posterior paw of the animal. The test substance was administered i.p. in neutralized solution at the same time as the carragenin.
Edema was measured by plethysmometry at different times after the administration of the carragenin.
Tables IV and V show the percentages of inhibition as a function of time and of dosage for certain compounds of the present invention.
The above results were obtained for solutions of substantially alkaline
The reference experiments were performed using physiological serum brough
to a pH approximately the same as the pH of the solutions to be tested.

Aldose Reductase = target: T1, Aldose Reductase (Bos taurus, UniProt P16116); assay: Inhibition of aldose reductase in vitro (enzyme from beef eye lenses, glyceraldehyde substrate); type: biochemical; settings: in DMF solution, read-out: percentages of inhibition (aldose reductase); for inhibition at 100 µM: 10^-4 mole/l; for inhibition at 10 µM: 10^-5 mole/l
T1 construct: The enzyme is extracted from beef eye lenses; from tissue; host or cells: beef eye lenses
Excerpt: Inhibition of Aldose Reductase In Vitro
The reoxidation of NADPH coupled to the enzymatic reaction was followed spectrophotometrically at 340 nm.

Solubilities in water = type: physicochemical; settings: water; read-out: Solubilities in water
capillary resistance = assay: Capillaroprotecting effects: capillary resistance; type: in vivo, male OFA EOPS rats
Experimental: (§1) Capillaroprotecting effects
The capillary resistance was determined by a variant of the method of Charlier et al, Arch. Inter. Physiol.

capillary permeability = assay: Capillaroprotecting effects: capillary permeability; type: in vivo, conventional male Wistar rats
Experimental: as §1
The capillary permeability was determined by the method of Charlier et al, Arch. Inter. Physiol.

Row | Structure (SMILES) | mortality at 336 h ([1]; 500 mg/kg i.p.) [%] | mortality at 336 h ([1]; 1000 mg/kg i.p.) [%] | mortality at 336 h ([1]; 2000 mg/kg i.p.) [%] | inhibition in vivo at 200 mg/kg (carragenin edema; 1/2 h) [%] | inhibition in vivo at 300 mg/kg (carragenin edema; 1/2 h) [%] | inhibition in vivo at 200 mg/kg (carragenin edema; 1 h, 1 h 1/2) [%] | inhibition in vivo at 200 mg/kg (carragenin edema; 1 h, 1 h) [%] | inhibition in vivo at 300 mg/kg (carragenin edema; 1 h, 1 h 1/2) [%] | inhibition in vivo at 300 mg/kg (carragenin edema; 1 h, 1 h) [%] | inhibition in vivo at 200 mg/kg (carragenin edema; 2 h, 2 h) [%] | inhibition in vivo at 300 mg/kg (carragenin edema; 2 h, 2 h) [%] | inhibition in vivo at 200 mg/kg (carragenin edema; 3 h, 3 h) [%] | inhibition in vivo at 300 mg/kg (carragenin edema; 3 h, 3 h) [%] | inhibition in vivo at 200 mg/kg (carragenin edema; 4 h, 4 h) [%] | inhibition in vivo at 300 mg/kg (carragenin edema; 4 h, 4 h) [%] | inhibition in vivo at 200 mg/kg (carragenin edema; 5 h, 5 h) [%] | inhibition in vivo at 300 mg/kg (carragenin edema; 5 h, 5 h) [%] | inhibition in vivo at 200 mg/kg (carragenin edema; 6 h, 6 h) [%] | inhibition at 100 µM (Aldose Reductase) [%] | inhibition at 10 µM (Aldose Reductase) [%] | other results
1 | C[C@@H]1O[C@@H](O[C@H]2[C@H](Oc3cc(O)c4c(c3)OC(c3ccc(O)cc3)CC4=O)O[C@H](CO)[C@@H](O)[C@@H]2O)[C@@H]2OC(C)(C)O[C@@H]2[C@H]1O (stereo partly drawn) [No. 8, 7-O-(2,3-O,O-isopropylidene-2-α-L-rhamnosyl-β-D-glucosyl)-naringenin] | 0 | 0 | 0 | 9 | 62 | 70 | 42 | 74 | 78 | 60 | 73 | 28 | 50 | 27 | 50 | 22 | 33 | 24 | 25 | 0 | inhibition in vivo at 100 mg/kg (carragenin edema; 1/2 h): 23%; inhibition in vivo at 100 mg/kg (carragenin edema; 1 h, 1 h 1/2): 85%; inhibition in vivo at 100 mg/kg (carragenin edema; 1 h, 1 h): 64%; inhibition in vivo at 100 mg/kg (carragenin edema; 2 h, 2 h): 75%; inhibition in vivo at 100 mg/kg (carragenin edema; 3 h, 3 h): 48%; inhibition in vivo at 100 mg/kg (carragenin edema; 4 h, 4 h): 48%; inhibition in vivo at 100 mg/kg (carragenin edema; 5 h, 5 h): 35%; inhibition in vivo at 100 mg/kg (carragenin edema; 6 h, 6 h): 37%; inhibition in vivo at 300 mg/kg (carragenin edema; 6 h, 6 h): 35%
2 | CC1(C)OC[C@H]2O[C@@H](Oc3cc4ccc(=O)oc4cc3O)[C@H](O)[C@@H](O)[C@@H]2O1 [No. 15, 6-O-(4,6-O,O-isopropylidene-β-D-glucosyl) esculetol] | 10 | 0 | 70 | 18 | – | 20 | 26 | – | – | 13 | – | 1 | – | 7 | – | 10 | – | 17 | 60 | 9 | mortality at 336 h ([1]; 1500 mg/kg i.p.): 20%; solubility (Solubilities in water): 9200 µg/mL (≈ 24.2 mM); capillary resistance, effect observed (capillary resistance; 25 mg/kg i.p.): 17 ± 11.8 u cm Hg/h; capillary resistance, effect observed (capillary resistance; 50 mg/kg i.p.): 20 ± 12.9 u cm Hg/h
3 | O=c1ccc2cc(O[C@@H]3O[C@@H]4COC5(CCCCC5)O[C@H]4[C@H](O)[C@H]3O)c(O)cc2o1 [No. 16, 6-O-(4,6-O,O-cyclohexylidene-β-D-glucosyl) esculetol] | 10 | 80 | – | 59 | – | 45 | 59 | – | – | 46 | – | 30 | – | 23 | – | 27 | – | 24 | 63 | 14 | mortality at 336 h ([1]; 750 mg/kg i.p.): 80%; solubility (Solubilities in water): 1250 µg/mL (≈ 2.97 mM); capillary resistance, effect observed (capillary resistance; 25 mg/kg i.p.): 8.8 ± 6.8 u cm Hg/h; capillary resistance, effect observed (capillary resistance; 50 mg/kg i.p.): 23 ± 11.1 u cm Hg/h
4 | COc1ccc(-c2cc(=O)c3c(O)cc(O[C@@H]4O[C@H](CO[C@@H]5O[C@@H](C)[C@H](O)[C@H]6OC(C)(C)O[C@@H]56)[C@@H](O)[C@H](O)[C@H]4O)cc3o2)cc1O [No. 32, 7-O-(2,3-O,O-isopropylidene-6-α-L-rhamnosyl-β-D-glucosyl)diosmitin] | – | 0 | – | 8 | 0 | 35 | 16 | 38 | 8 | 43 | 44 | 36 | 31 | 30 | 32 | 20 | 43 | 20 | – | – | inhibition in vivo at 150 mg/kg (carragenin edema; 1/2 h): 5%; inhibition in vivo at 150 mg/kg (carragenin edema; 1 h, 1 h 1/2): 37%; inhibition in vivo at 150 mg/kg (carragenin edema; 1 h, 1 h): 17%; inhibition in vivo at 150 mg/kg (carragenin edema; 2 h, 2 h): 49%; inhibition in vivo at 150 mg/kg (carragenin edema; 3 h, 3 h): 43%; inhibition in vivo at 150 mg/kg (carragenin edema; 4 h, 4 h): 42%; inhibition in vivo at 150 mg/kg (carragenin edema; 5 h, 5 h): 37%; inhibition in vivo at 150 mg/kg (carragenin edema; 6 h, 6 h): 34%; inhibition in vivo at 300 mg/kg (carragenin edema; 6 h, 6 h): 36%; percentage reduction of capillary permeability (capillary permeability; 10 mg/kg i.p.): 7%; percentage reduction of capillary permeability (capillary permeability; 75 mg/kg i.p.): 32%
